Data: US9526680B2, “Method for searching for malodor control agent, malodor control agent, and malodor control method” (Kao Corporation, priority 2010, dated 2016)

What was measured:
[1] = Sensory evaluation test of hexanoic acid odor inhibition; format: in vivo; details: for Intensity of odor: hexanoic acid odor, malodor alone rated as 5, 0 to 10 points, test substance diluted 100 times with propylene glycol, three panelists; for Inhibition of hexanoic acid odor (in words): sensory test, test substance diluted 100 times with propylene glycol (FIG. 5, Table 4)
Method: Cotton balls were introduced into a glass bottle (Hakuyo Glass Co., Ltd. No. 11, capacity 110 ml), and hexanoic acid diluted 100 times with propylene glycol, nonanoic acid diluted 10 times with propylene glycol, or isovaleric acid diluted 1000 times with propylene glycol, as a malodor, and a test substance were added dropwise in an amount of […] to the cotton balls. The glass bottle was left to stand overnight at room temperature, and the odor molecules were sufficiently volatilized in the glass bottle. A sensory evaluation test was carried out by a panel of three panelists (5 panelists for isovaleric acid), and while the intensity of odor in the case of adding dropwise the malodor alone was rated as 5, the intensity of the malodor in the case of incorporating a test substance was evaluated on the basis of a system of 20 grades from 0 point to 10 points (0.5 points per grade).
Regarding the test substance, florhydral (Givaudan SA), bourgeonal (Givaudan SA), hydroxycitronellal (Givaudan SA, International Flavors & Fragrances, Inc., and the like), 4-isopropylcyclohexanecarbaldehyde (synthesized according to a method described in JP-A-2-188549), 4-(2-methoxyphenyl)-2-methyl-2-butanol (JP-A-9-111281), florosa (Givaudan SA), isocyclocitral (Givaudan SA, International Flavors & Fragrances, Inc., and the like), tripral (International Flavors & Fragrances, Inc.), and Pollenal II (Kao Corp.), which had been diluted 100 times with propylene glycol, were used for hexanoic acid; florhydral that had been diluted 10 times with propylene glycol was used for nonanoic acid; and florhydral that had been diluted 1000 times with propylene glycol was used for isovaleric acid.

OR51E1 = target: T1, OR51E1 (Homo sapiens, UniProt Q8TCB6); test: Luciferase reporter gene assay, OR51E1 expressed in HEK293 cells; format: cell-based; details: for Inhibition ratio of OR51E1 response: response to hexanoic acid, test substance added together with hexanoic acid, HEK293
T1 construct: expressed in transfected cells; host or cells: HEK293
T1 sequence (Q8TCB6 1-318): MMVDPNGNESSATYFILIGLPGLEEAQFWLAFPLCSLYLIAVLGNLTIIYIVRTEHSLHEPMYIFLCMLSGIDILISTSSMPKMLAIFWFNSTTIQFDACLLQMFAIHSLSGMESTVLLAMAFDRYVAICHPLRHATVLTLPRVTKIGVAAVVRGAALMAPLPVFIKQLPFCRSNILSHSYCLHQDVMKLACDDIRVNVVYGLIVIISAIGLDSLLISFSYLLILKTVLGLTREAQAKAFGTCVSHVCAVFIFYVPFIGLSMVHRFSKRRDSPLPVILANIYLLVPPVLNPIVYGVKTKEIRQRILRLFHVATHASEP
Method: (§1) Cloning of human olfactory receptors was performed based on the sequence information registered in GenBank, through PCR with human genomic DNA female (G1521: Promega) as a template. Each of the genes amplified through PCR was inserted into a pENTR vector (Invitrogen) according to an instruction manual. Then, the gene-inserted vector was digested with NotI and AscI, and the obtained fragments were inserted into NotI and AscI sites located downstream of the Flag-Rho tag sequence in the pME18S vector.
(§2) Each of the 350 types of human olfactory receptors was expressed in HEK293 cells. A reaction solution having a composition shown in Table 2 was prepared on a clean bench, and left to stand for 15 minutes. The solution was dispensed to each well of a 96-well plate (BD). Subsequently, […] cells (100 μL, 3×10^5 cells/cm^2) were seeded in each well and cultured for 24 hours in an incubator at 37° C. and under 5% CO2 conditions.
(§3) The olfactory receptor expressed in HEK293 cell was conjugated with cell-intrinsic Gas to activate adenylate cyclase, and thereby the level of intracellular cAMP was increased. For the measurement of the response to odor in this study, the luciferase reporter gene assay was used, in which an increase in the amount of intracellular cAMP was monitored by using the emission value originating from firefly luciferase gene (fluc2P-CRE-hygro) as an indicator. Furthermore, a gene product obtained by fusing renilla luciferase gene in the downstream of CMV promoter (hRluc-CMV) was simultaneously introduced, and this was used as an internal standard for correcting an error in the transgenesis efficiency or the number of cells. The medium was removed from the culture prepared in the above-described section 3) by using a Pipetman, and 75 μl of a solution containing an odor substance (1 mM hexanoic acid or 300 μM nonanoic acid) prepared in CD293 medium (Invitrogen) was added thereto. The cells were cultured for 4 hours in a CO2 incubator, and the luciferase gene was sufficiently expressed in the cells. For the measurement of luciferase activity, the measurement was carried out by using a Dual-Glo™ luciferase assay system (Promega) according to the operation manual of the product. A value calculated by dividing the emission value, derived from a firefly luciferase induced by the stimulation with an odor substance, by the emission value in cells that were not-stimulated with an odor substance, was designated as a fold increase, and used as an index of response intensity.
(§4) OR2W1, OR10A6, OR51E1, OR51I2, and OR51L1 were respectively expressed in HEK293 cells by the same method as that used in Example 1, and a luciferase assay was carried out. In the luciferase assay, hexanoic acid was used as the odorous substance, and test substances were added together with hexanoic acid. The response of the olfactory receptors to hexanoic acid was measured, and a decrease in the receptor response to the addition of test substances was evaluated.
(§5) The inhibition ratios of the receptor response to test substances were calculated as follows. The emission value (Y) obtained from the cells in which the same receptors were introduced but no odor stimulation was conducted, was subtracted from the emission value derived from firefly luciferase (X) induced by odor stimulation with hexanoic acid alone. Similarly, the emission value (Y) obtained from the cells in which no odor stimulation was conducted, was subtracted from the emission value (Z) caused by stimulation with a mixture of hexanoic acid and a test substance. By the following calculation formula, the inhibitory activity of the test substance to receptor response was calculated based on the increment of the emission value (X−Y) caused by stimulation of hexanoic acid alone. Multiple independent experiments were performed in duplicate, and the average of each experiment was obtained. Inhibition ratio (%)={1−(Z−Y)/(X−Y)}×100 […]

OR2W1 = target: T2, OR2W1 (Homo sapiens, UniProt Q9Y3N9); test: Luciferase reporter gene assay, OR2W1 expressed in HEK293 cells; format: cell-based; details: for Inhibition ratio of OR2W1 response: response to hexanoic acid, test substance added together with hexanoic acid, HEK293
T2 construct: expressed in transfected cells; host or cells: HEK293
T2 sequence (Q9Y3N9 1-320): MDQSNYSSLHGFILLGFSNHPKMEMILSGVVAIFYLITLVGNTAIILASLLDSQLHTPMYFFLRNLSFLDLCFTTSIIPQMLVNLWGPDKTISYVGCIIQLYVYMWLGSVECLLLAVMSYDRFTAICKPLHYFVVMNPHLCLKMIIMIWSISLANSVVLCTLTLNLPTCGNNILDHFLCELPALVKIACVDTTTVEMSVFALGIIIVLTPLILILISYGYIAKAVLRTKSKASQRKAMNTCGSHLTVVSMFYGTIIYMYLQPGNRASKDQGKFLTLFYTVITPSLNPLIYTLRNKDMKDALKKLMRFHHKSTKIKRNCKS
Method: as §1, §2, §3, §4, §5

[2] = 1 mM hexanoic acid, test substance 3, 10, 30, 100, 300 μM (FIG. 4)

Inhibition of OR51E1 response to hexanoic acid (in words) (OR51E1; [2])	Inhibition of OR2W1 response to hexanoic acid (in words) (OR2W1; [2])	Compound	Intensity of odor [1]	Inhibition of hexanoic acid odor (in words) [1]	Inhibition ratio of OR51E1 response (OR51E1)	Inhibition ratio of OR2W1 response (OR2W1)
–	–	2,4,6-trimethyl-3-cyclohexene-1-carboxyaldehyde, 3,5,6-trimethyl-3-cyclohexene-1-carboxyaldehyde [Isocyclocitral]	0.67	inhibit the hexanoic acid odor	1 (Inhibition ratio: 50% or higher)	1 (Inhibition ratio: 50% or higher)
in a concentration-dependent manner	in a concentration-dependent manner	CC(C)c1cccc(C(C)CC=O)c1 (stereo not shown) [Florhydral, 3-(3-isopropylphenyl)-butyraldehyde]	1.25	markedly inhibited	1 (Inhibition ratio: 50% or higher)	1 (Inhibition ratio: 50% or higher)
